Data taken from the NIST ThermoML archive (doi:10.1021/je7000733).
± gives the expanded uncertainty stated by the source.

Key:
[1] = refractive index (Na D-line) (dimensionless); conditions: 293.1 K; 101.33 kPa; Liquid; Standard Abbe refractometry
[2] = Liquid; for mass density: 293.1 K, 101.33 kPa, Vibrating tube method; for Normal boiling temperature: Fisher boiling point apparatus

refractive index [1] | mass density [2] | Normal boiling temperature [2] | Structure (SMILES)
1.42014 ± 0.0007 | 1040.22 ± 0.27 kg/m3 | 217.70 ± 0.2 °C | CCOC(=O)CCC(=O)OCC [diethyl butanedioate]
1.42725 ± 0.0007 | 1007.63 ± 0.24 kg/m3 | 245.20 ± 0.2 °C | CCOC(=O)CCCCC(=O)OCC [diethyl hexanedioate]
1.37201 ± 0.0007 | 1044.3 ± 0.27 kg/m3 | 118.00 ± 0.2 °C | CC(=O)O [acetic acid]
1.42414 ± 0.00078 | 1022.04 ± 0.88 kg/m3 | 236.50 ± 0.2 °C | CCOC(=O)CCCC(=O)OCC [diethyl glutarate]
